In ChEMBL document CHEMBL3526096, “Species differences in biliary clearance and possible relevance of hepatic uptake and efflux transporters involvement” (Drug Metab Dispos, 2013) one finds dose excreted, CL free and CL data, which are given here for nine compounds.

A short description of data set [1]: Drug excretion in beagle dog assessed as compound excreted into bile at 20 mg/kg, iv. More on the design: dose 20 mg/kg, route intravenous. In kind it is ADME, organism-based, Canis lupus familiaris. The settings on record: read-out: Drug excretion.
Data set [2] has as its system Canis familiaris. Nature of the data set: Unbound biliary clearance in beagle dog at 20 mg/kg, iv. The format is ADME, organism-based, Canis lupus familiaris, Bile. More on the design: dose 20 mg/kg, route intravenous. The conditions noted are these: in vivo.
The test system of data set [3] is Rattus norvegicus. Nature of the data set: Unbound biliary clearance in Sprague-Dawley rat at 20 mg/kg, iv. The format is ADME, organism-based, Bile. More on the design: dose 20 mg/kg, route intravenous. The conditions noted are these: in vivo.
The test system of data set [4] is Homo sapiens. Nature of the data set: Unbound biliary clearance in human at 1 gm, iv after 24 hrs by T-tube method. The settings on record: in vivo. The format is ADME, organism-based, Bile.
Data set [5] is described as follows: Drug excretion in Sprague-Dawley rat assessed as compound excreted into bile at 20 mg/kg, iv. The format is ADME, organism-based. Also noted: dose 20 mg/kg, route intravenous. The conditions noted are these: read-out: Drug excretion.
Data set [6] in a line: Drug excretion in human assessed as compound excreted into bile at 1 gm, iv after 24 hrs by T-tube method. The format is ADME, organism-based. The settings on record: read-out: Drug excretion.
For data set [7], the system named is Rattus norvegicus. The experiment in a line: Total biliary clearance in Sprague-Dawley rat at 20 mg/kg, iv. The format is ADME, organism-based, Bile. Also noted: dose 20 mg/kg, route intravenous. The settings on record: in vivo.
Data set [8] concerns Canis familiaris. The experiment in a line: Total biliary clearance in beagle dog at 20 mg/kg, iv. The settings on record: in vivo. In kind it is ADME, organism-based, Canis lupus familiaris, Bile. Also noted: dose 20 mg/kg, route intravenous.
Data set [9] relates to Homo sapiens. The experiment in a line: Total biliary clearance in human at 1 gm, iv after 24 hrs by T-tube method. The settings on record: in vivo. The format is ADME, organism-based, Bile.
Data set [10] can be described thus: Drug excretion in rat assessed as compound excreted into bile at 10 mg/kg, iv.
Data set [11] in a line: Drug excretion in human assessed as compound excreted into bile at 400 mg, po after 24 hrs by T-tube method.
A short description of data set [12]: Drug excretion in human assessed as compound excreted into bile at 20 mg, iv after 24 hrs by T-tube method. The format is ADME, organism-based. The settings on record: read-out: Drug excretion.
Data set [13] has as its system Homo sapiens. Nature of the data set: Total biliary clearance in human at 20 mg, iv after 24 hrs by T-tube method. In kind it is ADME, organism-based, Bile. The settings on record: in vivo.
Data set [14] has as its system Rattus norvegicus. Nature of the data set: Unbound biliary clearance in Sprague-Dawley rat at 8 uCi, iv. The format is ADME, organism-based, Bile. The conditions noted are these: in vivo.
Data set [15] relates to Rattus norvegicus. The experiment in a line: Total biliary clearance in Sprague-Dawley rat at 8 uCi, iv. The format is ADME, organism-based, Bile. The settings on record: in vivo.
The test system of data set [16] is Homo sapiens. Nature of the data set: Unbound biliary clearance in human at 20 mg, iv after 24 hrs by T-tube method. The settings on record: in vivo. In kind it is ADME, organism-based, Bile.
Data set [17] is described as follows: Drug excretion in iv dosed human assessed as compound excreted into bile after 72 hrs by T-tube method. The format is ADME, organism-based. The conditions noted are these: read-out: Drug excretion.
Data set [18] has as its system Rattus norvegicus. The experiment in a line: Unbound biliary clearance in iv dosed Sprague-Dawley rat. In kind it is ADME, organism-based, Bile. The conditions noted are these: in vivo.
Data set [19] can be described thus: Drug excretion in iv dosed Sprague-Dawley rat assessed as compound excreted into bile. In kind it is ADME, organism-based. The settings on record: read-out: Drug excretion.
Data set [20] deals with Homo sapiens. Nature of the data set: Total biliary clearance in iv dosed human after 72 hrs by T-tube method. The format is ADME, organism-based, Bile. The settings on record: in vivo.
For data set [21], the system named is Rattus norvegicus. The experiment in a line: Total biliary clearance in iv dosed Sprague-Dawley rat. In kind it is ADME, organism-based, Bile. The conditions noted are these: in vivo.
For data set [22], the system named is Homo sapiens. Nature of the data set: Unbound biliary clearance in iv dosed human after 72 hrs by T-tube method. In kind it is ADME, organism-based, Bile. The conditions noted are these: in vivo.
Data set [23] can be described thus: Drug excretion in iv dosed rat assessed as compound excreted into bile. The conditions noted are these: read-out: Drug excretion. The format is ADME, organism-based.
Data set [24] in a line: Drug excretion in human assessed as compound excreted into bile at 2 gm, iv after 24 hrs by T-tube method. The settings on record: read-out: Drug excretion. In kind it is ADME, organism-based.
A short description of data set [25]: Drug excretion in human assessed as compound excreted into bile. The format is ADME. The conditions noted are these: read-out: Drug excretion.
A short description of data set [26]: Drug excretion in iv dosed dog assessed as compound excreted into bile. In kind it is ADME, organism-based, Canis lupus familiaris. The settings on record: read-out: Drug excretion.
Data set [27] in a line: Drug excretion in human assessed as compound excreted into bile at 60 mg, po after 12 hrs by fecal extraction method.
Data set [28] can be described thus: Drug excretion in iv dosed Wistar rat assessed as compound excreted into bile. In kind it is ADME, organism-based. The settings on record: read-out: Drug excretion.
The test system of data set [29] is Rattus norvegicus. Nature of the data set: Unbound biliary clearance in Wistar rat at 10 mg/kg, iv. In kind it is ADME, organism-based, Bile. Also noted: dose 10 mg/kg, route intravenous. The settings on record: in vivo.
The subject of data set [30] is Canis familiaris. Nature of the data set: Unbound biliary clearance in iv dosed dog. The format is ADME, organism-based, Canis lupus familiaris, Bile. The settings on record: in vivo.
For data set [31], the system named is Homo sapiens. The experiment in a line: Unbound biliary clearance in iv dosed human after 20 hrs. In kind it is ADME, organism-based, Bile. The settings on record: in vivo.
The subject of data set [32] is Rattus norvegicus. The experiment in a line: Total biliary clearance in Wistar rat at 10 mg/kg, iv. More on the design: dose 10 mg/kg, route intravenous. In kind it is ADME, organism-based, Bile. The settings on record: in vivo.
The test system of data set [33] is Homo sapiens. The experiment in a line: Total biliary clearance in iv dosed human after 20 hrs by duodenal aspiration method. The format is ADME, organism-based, Bile. The settings on record: in vivo.
Data set [34] in a line: Drug excretion in Wistar rat assessed as compound excreted into bile at 10 mg/kg, iv. In kind it is ADME, organism-based. Also noted: dose 10 mg/kg, route intravenous. The conditions noted are these: read-out: Drug excretion.
Data set [35] is described as follows: Drug excretion in iv dosed human assessed as compound excreted into bile after 20 hrs. The format is ADME, organism-based. The settings on record: read-out: Drug excretion.
Data set [36] has as its system Canis familiaris. Nature of the data set: Total biliary clearance in iv dosed dog. The format is ADME, organism-based, Canis lupus familiaris, Bile. The settings on record: in vivo.

SMILES strings stand for the structures.

In the case of `Cc1cc(O)c(C(=O)N[C@@H](C(=O)N[C@@H]2C(=O)N3C(C(=O)O)=C(CSc4nnnn4C)CS[C@H]23)c2ccc(O)cc2)cn1` [CEFPIRAMIDE], the dose excreted turned out to be 19% in data set [1] and 58% in data set [5]. The figures for the CL free in [2], in data set [3] and in data set [4] were 1.399 mL/min/kg, 9.667 mL/min/kg and 1 mL/min/kg, respectively. For the same compound, the dose excreted at 24 h in [6] turned out to be 28%. The values for the CL in [7], in [8] and in data set [9] were 5.22 mL/min/kg, 0.979 mL/min/kg and 0.04 mL/min/kg, respectively.
For `O=C(O)c1cn(C2CC2)c2cc(N3CCNCC3)c(F)cc2c1=O` [CIPROFLOXACIN], in [10], the dose excreted was determined as 10%. For the same compound, in data set [11], the dose excreted at 24 h was determined as 0.5%.
Take `CCCCC(=O)N(Cc1ccc(-c2ccccc2-c2nnn[nH]2)cc1)[C@H](C(=O)O)C(C)C`: in data set [12], the dose excreted at 24 h was found to be 88%. The CL in data set [13] is 0.431 mL/min/kg; in data set [15] it was 12.5 mL/min/kg. The CL free was determined as 378.8 mL/min/kg in data set [14] and 10.775 mL/min/kg in data set [16].
Regarding `CC[C@]1(O)C[C@H]2CN(CCc3c([nH]c4ccccc34)[C@@](C(=O)OC)(c3cc4c(cc3OC)N(C=O)[C@H]3[C@@](O)(C(=O)OC)[C@H](OC(C)=O)[C@]5(CC)C=CCN6CC[C@]43[C@@H]65)C2)C1` [VINCRISTINE], the dose excreted at 72 h in data set [17] stood at 10%. Further, the CL free in data set [18] is 84.87 mL/min/kg; in [22], 0.523 mL/min/kg. The dose excreted in [19] amounted to 43%. The results for the CL in [20] and in data set [21] were 0.209 mL/min/kg and 33.1 mL/min/kg, respectively.
Regarding `CCN1CCN(C(=O)N[C@@H](C(=O)N[C@@H]2C(=O)N3C(C(=O)O)=C(CSc4nnnn4C)CS[C@H]23)c2ccc(O)cc2)C(=O)C1=O` [CEFOPERAZONE], in data set [23], the dose excreted was determined as 86%. In addition, the dose excreted at 24 h in data set [24] came to 12%.
For the compound `N=C(N)N1CCC[C@@H](CNC(=O)C[C@H](NS(=O)(=O)c2ccc3ccccc3c2)C(=O)N(CC(=O)O)C2CC2)C1` [NAPSAGATRAN ANHYDROUS], the dose excreted in data set [25] stood at 60%; in data set [23], 61%; in [26], 97%.
As for `CC(C)(C(=O)O)c1ccc(C(O)CCCN2CCC(C(O)(c3ccccc3)c3ccccc3)CC2)cc1` (centres undefined) [FEXOFENADINE], the dose excreted at 12 h in data set [27] was determined as 23%. In data set [28], the dose excreted was found to be 28%.
On to `CC1=C(C(=O)O)N2C(=O)[C@@H](NC(=O)[C@H](N)c3ccccc3)[C@H]2SC1` [CEPHALEXIN ANHYDROUS], for which, in data set [23], the dose excreted was 32%.
In the case of `CC[C@H]1OC(=O)[C@H](C)[C@@H](O[C@H]2C[C@@](C)(OC)[C@@H](O)[C@H](C)O2)[C@H](C)[C@@H](O[C@@H]2O[C@H](C)C[C@H](N(C)C)[C@H]2O)[C@](C)(O)C[C@@H](C)C(=O)[C@H](C)[C@@H](O)[C@]1(C)O` [ERYTHROMYCIN], the CL free came to 22.38 mL/min/kg in data set [29], 4.483 mL/min/kg in data set [30] and 7.169 mL/min/kg in [31]. For the same compound, the CL in [32] worked out at 17.4 mL/min/kg; in [33], 1.147 mL/min/kg; in [36] it was 2.376 mL/min/kg. Moreover, the dose excreted in [34] is 30%; in data set [26], 5%. Also, the dose excreted at 20 h in data set [35] was 13%.
